From US9738634B2, “Heterocyclic amide compound and herbicide” (SYNGENTA PARTICIPATIONS AG, priority 2013, dated 2017)

Assays:
Format in all cases: in vivo
Details in all cases: treatment dosage 320 g/ha
barnyard grass [1] = test: Test Example 1: weedkilling efficacy, preemergent weed treatment in the submerged state; A: barnyard grass
In short: (§1)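 Visual scores against set criteria were taken 3 weeks after treatment. Compounds, as diluted emulsions at specified g/ha, went onto the water surface of 4 cm-flooded alluvial soil pots on the day weeds were sown and 2.5-leaf rice was transplanted; greenhouse held 25–30 °C.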

bulrush [2] = test: Test Example 1: weedkilling efficacy, preemergent weed treatment in the submerged state; B: bulrush
In short: as §1

oval-leafed pondweed [3] = test: Test Example 1: weedkilling efficacy, preemergent weed treatment in the submerged state; C: oval-leafed pondweed
In short: as §1

transplanted rice = test: Test Example 1: preemergent weed treatment in the submerged state, effect on crop; a: transplanted rice
In short: as §1

barnyard grass [4] = test: Test Example 2: weedkilling efficacy, growth period weed treatment in the submerged state; A: barnyard grass
In short: (§2)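 Barnyard grass, bulrush and oval-leafed pondweed sown in alluvial soil under 4 cm flooding, greenhouse 25 to 30° C. At 1-2 leaf stage, water-diluted emulsion applied to the water surface at stated g/ha dosages; effects scored 3 weeks later.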

bulrush [5] = test: Test Example 2: weedkilling efficacy, growth period weed treatment in the submerged state; B: bulrush
In short: as §2

oval-leafed pondweed [6] = test: Test Example 2: weedkilling efficacy, growth period weed treatment in the submerged state; C: oval-leafed pondweed
In short: as §2

crabgrass [7] = test: Test Example 3: weedkilling efficacy through soil treatment; D: crabgrass
In short: (§3)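 Crop and weed responses were judged three weeks after a uniform surface spray of the water-diluted emulsion at the given g/ha rate. Seeds sat beneath about 1.5 cm of sterilized diluvial soil, and boxes stood in a greenhouse at 25 to 30° C.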

green foxtail [8] = test: Test Example 3: weedkilling efficacy through soil treatment; E: green foxtail
In short: as §3

barnyard grass [9] = test: Test Example 3: weedkilling efficacy through soil treatment; F: barnyard grass
In short: as §3

wild oat [10] = test: Test Example 3: weedkilling efficacy through soil treatment; G: wild oat
In short: as §3

black-grass [11] = test: Test Example 3: weedkilling efficacy through soil treatment; H: black-grass
In short: as §3

Italian ryegrass [12] = test: Test Example 3: weedkilling efficacy through soil treatment; I: Italian ryegrass
In short: as §3

common wind-grass [13] = test: Test Example 3: weedkilling efficacy through soil treatment; J: common wind-grass
In short: as §3

Indian mallow [14] = test: Test Example 3: weedkilling efficacy through soil treatment; K: Indian mallow
In short: as §3

redroot pigweed [15] = test: Test Example 3: weedkilling efficacy through soil treatment; L: redroot pigweed
In short: as §3

catchweed [16] = test: Test Example 3: weedkilling efficacy through soil treatment; O: catchweed
In short: as §3

birds-eye speedwell = test: Test Example 3: weedkilling efficacy through soil treatment; p: birds-eye speedwell
In short: as §3

directly sown rice [17] = test: Test Example 3: soil treatment, effect on crop; b: directly sown rice
In short: as §3

corn [18] = test: Test Example 3: soil treatment, effect on crop; c: corn
In short: as §3

soybean [19] = test: Test Example 3: soil treatment, effect on crop; d: soybean
In short: as §3

wheat [20] = test: Test Example 3: soil treatment, effect on crop; e: wheat
In short: as §3

beet [21] = test: Test Example 3: soil treatment, effect on crop; f: beet
In short: as §3

rapeseed [22] = test: Test Example 3: soil treatment, effect on crop; g: rapeseed
In short: as §3

crabgrass [23] = test: Test Example 4: weedkilling efficacy by foliar treatment; D: crabgrass
In short: (§4)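 Seeds are spot-sown into sterilized diluvial soil and covered with about 1.5 cm of soil. After 14 days' greenhouse growth at 25 to 30° C, plants are sprayed on stems and leaves with diluted emulsion at the stated g/ha rate, then scored at 3 weeks.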

green foxtail [24] = test: Test Example 4: weedkilling efficacy by foliar treatment; E: green foxtail
In short: as §4

barnyard grass [25] = test: Test Example 4: weedkilling efficacy by foliar treatment; F: barnyard grass
Description: (§5) Testing of Weedkilling Efficacy by Foliar Treatment
(§6) Sterilized diluvial soil was introduced into 21 cm long, 13 cm wide, 7 cm deep plastic boxes, and seeds of crabgrass, green foxtail, barnyard grass, wild oat, black-grass, Italian ryegrass, common wind-grass, Indian mallow, redroot pigweed, fig-leafed goosefoot, chickweed, catchweed, birds-eye speedwell, corn, soybean, rice, wheat, beet and rapeseed were each spot-sown, and covered with about 1.5 cm of soil, then the plants were grown in a greenhouse at 25 to 30° C.
(§7) After they had grown for 14 days, emulsions of compounds of the present invention prepared according to compounding example 2 were diluted with water to give the specified dosages, and applied uniformly onto the stem and leaf parts with a small sprayer. 3 weeks after the pesticide treatment the effect on each type of plant was investigated on the basis of the assessment criteria of test example 1.
(§8) A: barnyard grass, B: bulrush, C: oval-leafed pondweed, D: crabgrass, E: green foxtail, F: barnyard grass, G: wild oat, H: black-grass, I: Italian ryegrass, J: common wind-grass, K: Indian mallow, L: redroot pigweed, M: fig-leafed goosefoot, N: chickweed, O: catchweed, p: birds-eye speedwell, a: transplanted rice, b: directly sown rice, c: corn, d: soybean, e: wheat, f: beet, g: rapeseed
(§9) Further, pesticide dosage (g/ha) indicates the concentration regulated such that treatment was with only the stated number of grams (g), when calculated per hectare (ha).

wild oat [26] = test: Test Example 4: weedkilling efficacy by foliar treatment; G: wild oat
In short: as §4

black-grass [27] = test: Test Example 4: weedkilling efficacy by foliar treatment; H: black-grass
In short: as §4

Italian ryegrass [28] = test: Test Example 4: weedkilling efficacy by foliar treatment; I: Italian ryegrass
In short: as §4

common wind-grass [29] = test: Test Example 4: weedkilling efficacy by foliar treatment; J: common wind-grass
In short: as §4

Indian mallow [30] = test: Test Example 4: weedkilling efficacy by foliar treatment; K: Indian mallow
In short: as §4

redroot pigweed [31] = test: Test Example 4: weedkilling efficacy by foliar treatment; L: redroot pigweed
In short: as §4

fig-leafed goosefoot = test: Test Example 4: weedkilling efficacy by foliar treatment; M: fig-leafed goosefoot
In short: as §4

chickweed = test: Test Example 4: weedkilling efficacy by foliar treatment; N: chickweed
In short: as §4

catchweed [32] = test: Test Example 4: weedkilling efficacy by foliar treatment; O: catchweed
In short: as §4

directly sown rice [33] = test: Test Example 4: foliar treatment, effect on crop; b: directly sown rice
In short: as §4

corn [34] = test: Test Example 4: foliar treatment, effect on crop; c: corn
In short: as §4

soybean [35] = test: Test Example 4: foliar treatment, effect on crop; d: soybean
In short: as §4

wheat [36] = test: Test Example 4: foliar treatment, effect on crop; e: wheat
In short: as §4

beet [37] = test: Test Example 4: foliar treatment, effect on crop; f: beet
In short: as §4

rapeseed [38] = test: Test Example 4: foliar treatment, effect on crop; g: rapeseed
Description: as §5, §6, §7, §8, §9

## CC1=C(c2ccccc2)C(=O)N(C(C)(C)C(=O)Nc2cc(Br)cc(F)n2)CO1 [B-2-35]
Barnyard grass [1]
  A (barnyard grass) weedkilling efficacy grade: 5 (weed kill ratio 90% or more, (practically complete withering))
Bulrush [2]
  B (bulrush) weedkilling efficacy grade: 5 (weed kill ratio 90% or more, (practically complete withering))
oval-leafed pondweed [3]
  C (oval-leafed pondweed) weedkilling efficacy grade: 5 (weed kill ratio 90% or more, (practically complete withering))
Transplanted rice
  a (transplanted rice) effect on crop grade: 0 (weed kill ratio 5% or less (practically no effect))
Barnyard grass [4]
  A (barnyard grass) weedkilling efficacy grade: 5 (weed kill ratio 90% or more, (practically complete withering))
Bulrush [5]
  B (bulrush) weedkilling efficacy grade: 5 (weed kill ratio 90% or more, (practically complete withering))
oval-leafed pondweed [6]
  C (oval-leafed pondweed) weedkilling efficacy grade: 5 (weed kill ratio 90% or more, (practically complete withering))
Crabgrass [7]
  D (crabgrass) weedkilling efficacy grade: 5 (weed kill ratio 90% or more, (practically complete withering))
Green foxtail [8]
  E (green foxtail) weedkilling efficacy grade: 5 (weed kill ratio 90% or more, (practically complete withering))
Barnyard grass [9]
  F (barnyard grass) weedkilling efficacy grade: 4 (weed kill ratio 70% or more, less than 90%)
Wild oat [10]
  G (wild oat) weedkilling efficacy grade: 4 (weed kill ratio 70% or more, less than 90%)
black-grass [11]
  H (black-grass) weedkilling efficacy grade: 5 (weed kill ratio 90% or more, (practically complete withering))
Italian ryegrass [12]
  I (Italian ryegrass) weedkilling efficacy grade: 5 (weed kill ratio 90% or more, (practically complete withering))
Common wind-grass [13]
  J (common wind-grass) weedkilling efficacy grade: 5 (weed kill ratio 90% or more, (practically complete withering))
Indian mallow [14]
  K (Indian mallow) weedkilling efficacy grade: 4 (weed kill ratio 70% or more, less than 90%)
Redroot pigweed [15]
  L (redroot pigweed) weedkilling efficacy grade: 3 (weed kill ratio 40% or more, less than 70%)
Catchweed [16]
  O (catchweed) weedkilling efficacy grade: 0 (weed kill ratio 5% or less (practically no effect))
birds-eye speedwell
  P (birds-eye speedwell) weedkilling efficacy grade: 4 (weed kill ratio 70% or more, less than 90%)
Directly sown rice [17]
  b (directly sown rice) effect on crop grade: 2 (weed kill ratio 20% or more, less than 40%)
Corn [18]
  c (corn) effect on crop grade: 1 (weed kill ratio 5% or more, less than 20%)
Soybean [19]
  d (soybean) effect on crop grade: 0 (weed kill ratio 5% or less (practically no effect))
Wheat [20]
  e (wheat) effect on crop grade: 1 (weed kill ratio 5% or more, less than 20%)
Beet [21]
  f (beet) effect on crop grade: 4 (weed kill ratio 70% or more, less than 90%)
Rapeseed [22]
  g (rapeseed) effect on crop grade: 4 (weed kill ratio 70% or more, less than 90%)
Crabgrass [23]
  D (crabgrass) weedkilling efficacy grade: 5 (weed kill ratio 90% or more, (practically complete withering))
Green foxtail [24]
  E (green foxtail) weedkilling efficacy grade: 5 (weed kill ratio 90% or more, (practically complete withering))
Barnyard grass [25]
  F (barnyard grass) weedkilling efficacy grade: 5 (weed kill ratio 90% or more, (practically complete withering))
Wild oat [26]
  G (wild oat) weedkilling efficacy grade: 2 (weed kill ratio 20% or more, less than 40%)
black-grass [27]
  H (black-grass) weedkilling efficacy grade: 4 (weed kill ratio 70% or more, less than 90%)
Italian ryegrass [28]
  I (Italian ryegrass) weedkilling efficacy grade: 4 (weed kill ratio 70% or more, less than 90%)
Common wind-grass [29]
  J (common wind-grass) weedkilling efficacy grade: 4 (weed kill ratio 70% or more, less than 90%)
Indian mallow [30]
  K (Indian mallow) weedkilling efficacy grade: 3 (weed kill ratio 40% or more, less than 70%)
Redroot pigweed [31]
  L (redroot pigweed) weedkilling efficacy grade: 3 (weed kill ratio 40% or more, less than 70%)
fig-leafed goosefoot
  M (fig-leafed goosefoot) weedkilling efficacy grade: 4 (weed kill ratio 70% or more, less than 90%)
chickweed
  N (chickweed) weedkilling efficacy grade: 3 (weed kill ratio 40% or more, less than 70%)
Catchweed [32]
  O (catchweed) weedkilling efficacy grade: 5 (weed kill ratio 90% or more, (practically complete withering))
Directly sown rice [33]
  b (directly sown rice) effect on crop grade: 4 (weed kill ratio 70% or more, less than 90%)
Corn [34]
  c (corn) effect on crop grade: 1 (weed kill ratio 5% or more, less than 20%)
Soybean [35]
  d (soybean) effect on crop grade: 4 (weed kill ratio 70% or more, less than 90%)
Wheat [36]
  e (wheat) effect on crop grade: 0 (weed kill ratio 5% or less (practically no effect))
Beet [37]
  f (beet) effect on crop grade: 3 (weed kill ratio 40% or more, less than 70%)
Rapeseed [38]
  g (rapeseed) effect on crop grade: 4 (weed kill ratio 70% or more, less than 90%)
